Measurements published in ChEMBL document CHEMBL1131946, “Synthesis and evaluation of backbone/amide-modified analogs of leualacin” (Bioorg Med Chem Lett, 1999).
pIC50: −log10 of the molar value.

Experiments:
[1] = Inhibitory effect against arachidonic acid-induced platelet aggregation at a concentration of 100 uM; type: functional
Rattus norvegicus [2] = organism: Rattus norvegicus; assay: vasodilatory effect for [Ca2+] antagonism in aortic arch isolated from WKY rats at a concentration of 0.01 uM; type: functional, Pharyngeal arch artery
[3] = Inhibitory effect against U-46,619-induced platelet aggregation at a concentration of 1 uM; type: functional
Rattus norvegicus [4] = organism: Rattus norvegicus; assay: vasodilatory effect for [Ca2+] antagonism in aortic arch isolated from WKY rats at a concentration of 10 uM; type: functional, Pharyngeal arch artery
Rattus norvegicus [5] = organism: Rattus norvegicus; assay: vasodilatory effect for [Ca2+] antagonism in aortic arch isolated from WKY rats at a concentration of 1 uM; type: functional, Pharyngeal arch artery
[6] = Inhibitory effect against collagen-induced platelet aggregation at a concentration of 100 ug/mL; type: functional
Rattus norvegicus [7] = organism: Rattus norvegicus; assay: vasodilatory effect for [Ca2+] antagonism in aortic arch isolated from WKY rats at a concentration of 100 uM; type: functional, Pharyngeal arch artery
Rattus norvegicus [8] = organism: Rattus norvegicus; assay: vasodilatory effect for [Ca2+] antagonism in aortic arch isolated from WKY rats at a concentration of 0.1 uM; type: functional, Pharyngeal arch artery
[9] = Inhibitory effect against TXB2 formation in response to arachidonic acid-induced platelet aggregation at a concentration of 100 uM; type: functional
[10] = Inhibitory effect against TXB2 formation in response to collagen-induced platelet aggregation at a concentration of 100 ug/mL; type: functional

SMILES	pIC50 [1]	Vasodilatory rate (Rattus norvegicus [2])	pIC50 [3]	Vasodilatory rate (Rattus norvegicus [4])	Vasodilatory rate (Rattus norvegicus [5])	pIC50 [6]	Vasodilatory rate (Rattus norvegicus [7])	Vasodilatory rate (Rattus norvegicus [8])	Amount of TXB2 formation [9]	Amount of TXB2 formation [10]
CC(C)C[C@@H]1NC(=O)[C@@H](CC(C)C)OC(=O)CCN(C)C(=O)[C@H](Cc2ccccc2)N(C)C(=O)[C@H](CC(C)C)OC1=O	< 3.70	11.5%	< 3.70	80.8%	25.1%	< 3.82	78%	32.5%	–	–
CC(C)C[C@@H]1NC(=O)[C@@H](CC(C)C)NC(=O)CCNC(=O)[C@H](Cc2ccccc2)N(C)C(=O)[C@H](CC(C)C)OC1=O	4.52	29.3%	4.40	–	100%	5.00	–	35%	30.7 ng/mL	25.6 ng/mL
CC(C)C[C@@H]1NC(=O)[C@@H](CC(C)C)NC(=O)CCN(C)C(=O)[C@H](Cc2ccccc2)N(C)C(=O)[C@H](CC(C)C)OC1=O	< 3.70	–	< 3.70	–	–	< 3.82	–	–	–	–
CC(C)C[C@@H]1NC(=O)[C@@H](CC(C)C)OC(=O)CCNC(=O)[C@H](Cc2ccccc2)N(C)C(=O)[C@H](CC(C)C)OC1=O	3.82	–	3.82	64.4%	26.8%	4.30	66.5%	–	55.4 ng/mL	39.4 ng/mL
